Among the data in patent publication US10975093B2, “Fused 1,4-diazepines as BET protein degraders” (THE REGENTS OF THE UNIVERSITY OF MICHIGAN, priority 2016, dated 2021) are IC50 values, retold here.

A value given as a limit tells only on which side of the number the result lay.

One test relates to MOLM-13. The experiment in a line: Cell growth inhibition, CellTiter-Glo Luminescent Cell Viability Assay, MOLM-13. It is filed as cell-based. To be noted: Homo sapiens, MOLM-13, 96 h, MOLM-13 cells, 4 days incubation. As to the method: (§1) Cell growth inhibitory activity of representative Compounds of the Disclosure was determined in various cell lines using CellTiter-Glo® Luminescent Cell Viability Assay. Cells were seeded in 384-well white opaque cell culture plates at a density of 2,000 cells/well with serially diluted compounds and incubated at 37° C. in an atmosphere of 95% air and 5% CO2 for 4 days. Cell viability was determined using the CellTiter-Glo® Luminescent Cell Viability Assay Kit (Promega, Madison, Wis.) according to the manufacture's instruction. Briefly, a volume of CellTiter-Glo® Reagent equal to the volume of cell culture medium was added to each well, and then the plates were incubated at room temperature for 10-20 minutes. The luminescent signal was measured using a Tecan Infinite M1000 multimode microplate reader (Tecan, Morrisville, N.C.). The half maximal inhibitory concentration (IC50) was calculated using the GraphPad Prism 5 software (GraphPad Software, La Jolla, Calif.).
(In general: ATP-based viability assays read luminescence as a measure of living cells.)

Another test deals with MDA-MB-231. The experiment in a line: Cell growth inhibition, CellTiter-Glo Luminescent Cell Viability Assay, MDA-MB-231. The conditions noted are these: Homo sapiens, MDA-MB-231, 96 h, MDA-MB-231 cells, 4 days incubation. Type of test: cell-based. The protocol: as §1

As usually defined, the IC50 is the concentration at which inhibition is half-maximal. A low value points to inhibition by little substance. As to `Cc1c(C#Cc2cnn(CCCN3CCN(c4cccc5c4C(=O)N(C4CCC(=O)NC4=O)C5=O)CC3)c2)sc2c1C(c1ccc(Cl)cc1)=N[C@@H](C)c1nnc(C)n1-2` (stereo partly drawn) [compound 178, 4-(4-(3-(4-(((S)-4-(4-chlorophenyl)-3,6,9-trimethyl-6H-thieno[3,2-f][1,2,4]triazolo[4,3-a][1,4]diazepin-2-yl)ethynyl)-1H-pyrazol-1-yl)propyl)piperazin-1-yl)-2-(2,6-dioxopiperidin-3-yl)isoindoline-1,3-dione], the IC50 with MOLM-13 came to 1 nM; in the test with MDA-MB-231 it was 0.6 nM. As for `Cc1c(C#Cc2cnn(CCCC#Cc3ccc4c(c3)C(=O)N(C3CCC(=O)NC3=O)C4=O)c2)sc2c1C(c1ccc(Cl)cc1)=N[C@@H](C)c1nnc(C)n1-2` (stereo partly drawn) [compound 158, 5-(5-(4-(((S)-4-(4-chlorophenyl)-3,6,9-trimethyl-6H-thieno[3,2-f][1,2,4]triazolo[4,3-a][1,4]diazepin-2-yl)ethynyl)-1H-pyrazolo-1-yl)pent-1-yn-1-yl)-2-(2,6-dioxopiperidin-3-yl)isoindoline-1,3-dione], the IC50 in the test with MOLM-13 came out at 2.5 nM; in the test with MDA-MB-231, 7.2 nM.

As to `Cc1c(C#Cc2ccc(CCCCNc3cccc4c3CN(C3CCC(=O)NC3=O)C4=O)nc2)sc2c1C(c1ccc(Cl)cc1)=N[C@@H](C)c1nnc(C)n1-2` (stereo partly drawn) [Cpd. No. 18, 3-(4-((4-(5-(((S)-4-(4-chlorophenyl)-3,6,9-trimethyl-6H-thieno[3,2-f][1,2,4]triazolo[4,3-a][1,4]diazepin-2-yl)ethynyl)pyridin-2-yl)butyl)amino)-1-oxoisoindolin-2-yl)piperidine-2,6-dione], the figures for the IC50 in the test on MOLM-13 and in the test on MDA-MB-231 were 0.23 nM and 0.43 nM, respectively.

As for `Cc1c(C#Cc2cnn(CCn3cnc(COc4cccc5c4CN(C4CCC(=O)NC4=O)C5=O)c3)c2)sc2c1C(c1ccc(Cl)cc1)=NCc1nnc(C)n1-2` (stereo not shown) [compound 154, 3-(4-((1-(2-(4-((4-(4-chlorophenyl)-3,9-dimethyl-6H-thieno[3,2-f][1,2,4]triazolo[4,3-a][1,4]diazepin-2-yl)ethynyl)-1H-pyrazol-1-yl)ethyl)-1H-imidazol-4-yl)methoxy)-1-oxoisoindolin-2-yl)piperidine-2,6-dione], the IC50 with MOLM-13 and in the test with MDA-MB-231 was above 100 nM in each case. For `Cc1c(C#Cc2cnn(CCn3cnc(COc4cccc5c4C(=O)N(C4CCC(=O)NC4=O)C5=O)c3)c2)sc2c1C(c1ccc(Cl)cc1)=NCc1nnc(C)n1-2` (stereo not shown) [compound 153, 4-((1-(2-(4-((4-(4-chlorophenyl)-3,9-dimethyl-6H-thieno[3,2-f][1,2,4]triazolo[4,3-a][1,4]diazepin-2-yl)ethynyl)-1H-pyrazol-1-yl)ethyl)-1H-imidazol-4-yl)methoxy)-2-(2,6-dioxopiperidin-3-yl)isoindoline-1,3-dione], the IC50 with MOLM-13 and in the test on MDA-MB-231 was above 100 nM throughout. With `Cc1c(C#Cc2cnn(CCCCNc3cccc4c3C(=O)N(C3(F)CCC(=O)NC3=O)C4=O)c2)sc2c1C(c1ccc(Cl)cc1)=NCc1nnc(C)n1-2` (stereo not shown) [compound 144, 4-((4-(4-((4-(4-chlorophenyl)-3,9-dimethyl-6H-thieno[3,2-f][1,2,4]triazolo[4,3-a][1,4]diazepin-2-yl)ethynyl)-1H-pyrazol-1-yl)butyl)amino)-2-(3-fluoro-2,6-dioxopiperidin-3-yl)isoindoline-1,3-dione], the results for the IC50 with MOLM-13 and in the test on MDA-MB-231 were 6.8 nM and 10.1 nM, respectively.

For the compound `Cc1c(C#Cc2cnn(CCCn3cnc(COc4cccc5c4CN(C4CCC(=O)NC4=O)C5=O)c3)c2)sc2c1C(c1ccc(Cl)cc1)=NCc1nnc(C)n1-2` (stereo not shown) [compound 156, 3-(4-((1-(3-(4-((4-(4-chlorophenyl)-3,9-dimethyl-6H-thieno[3,2-f][1,2,4]triazolo[4,3-a][1,4]diazepin-2-yl)ethynyl)-1H-pyrazol-1-yl)propyl)-1H-imidazol-4-yl)methoxy)-1-oxoisoindolin-2-yl)piperidine-2,6-dione], the IC50 came to 12.8 nM with MOLM-13 and 17.6 nM in the test with MDA-MB-231. The matching figures for `Cc1c(C#Cc2ccc(CCCC#Cc3cccc4c3CN(C3CCC(=O)NC3=O)C4=O)nc2)sc2c1C(c1ccc(Cl)cc1)=N[C@@H](C)c1nnc(C)n1-2` (stereo partly drawn) [compound 166, 3-(4-(5-(5-(((S)-4-(4-chlorophenyl)-3,6,9-trimethyl-6H-thieno[3,2-f][1,2,4]triazolo[4,3-a][1,4]diazepin-2-yl)ethynyl)pyridin-2-yl)pent-1-yn-1-yl)-1-oxoisoindolin-2-yl)piperidine-2,6-dione]: 0.9 nM and 0.6 nM.

Regarding `Cc1c(C#Cc2cnn(CCCN3CCC(Nc4cccc5c4CN(C4CCC(=O)NC4=O)C5=O)CC3)c2)sc2c1C(c1ccc(Cl)cc1)=N[C@@H](CC(=O)N1CCN(C)CC1)c1nnc(C)n1-2` (stereo partly drawn) [compound 192, 3-(4-((1-(3-(4-(((S)-4-(4-chlorophenyl)-3,9-dimethyl-6-(2-(4-methylpiperazin-1-yl)-2-oxoethyl)-6H-thieno[3,2-f][1,2,4]triazolo[4,3-a][1,4]diazepin-2-yl)ethynyl)-1H-pyrazol-1-yl)propyl)piperidin-4-yl)amino)-1-oxoisoindolin-2-yl)piperidine-2,6-dione], the 50% inhibitory concentration (IC50) was determined as 0.07 nM with MOLM-13 and 0.08 nM in the test on MDA-MB-231.

`Cc1c(C#Cc2cnn(CCOCCOCCNc3cccc4c3CN(C3CCC(=O)NC3=O)C4=O)c2)sc2c1C(c1ccc(Cl)cc1)=N[C@@H](C)c1nnc(C)n1-2` (stereo partly drawn) [compound 188, 3-(4-((2-(2-(2-(4-(((S)-4-(4-chlorophenyl)-3,6,9-trimethyl-6H-thieno[3,2-f][1,2,4]triazolo[4,3-a][1,4]diazepin-2-yl)ethynyl)-1H-pyrazol-1-yl)ethoxy)ethoxy)ethyl)amino)-1-oxoisoindolin-2-yl)piperidine-2,6-dione]: half-maximal inhibition in the test with MDA-MB-231 (IC50) required 1.7 nM. This lies in the single-digit nanomolar range. Regarding `Cc1ncsc1-c1ccc([C@H](C)NC(=O)[C@@H]2C[C@@H](F)CN2C(=O)[C@@H](NC(=O)COCCCn2cc(C#Cc3sc4c(c3C)C(c3ccc(Cl)cc3)=N[C@@H](C)c3nnc(C)n3-4)cn2)C(C)(C)C)cc1` [compound 203], in the test on MDA-MB-231, half-maximal inhibition (IC50) was put at 37.5 nM. This IC50 is about 22-fold higher than that of the compound before. `Cc1ncsc1-c1ccc([C@H](C)NC(=O)[C@@H]2COCCN2C(=O)[C@@H](NC(=O)COCCCn2cc(C#Cc3sc4c(c3C)C(c3ccc(Cl)cc3)=N[C@@H](C)c3nnc(C)n3-4)cn2)C(C)(C)C)cc1` [compound 202, (S)-4-((S)-2-(2-(3-(4-(((S)-4-(4-chlorophenyl)-3,6,9-trimethyl-6H-thieno[3,2-f][1,2,4]triazolo[4,3-a][1,4]diazepin-2-yl)ethynyl)-1H-pyrazol-1-yl)propoxy)acetamido)-3,3-dimethylbutanoyl)-N-((S)-1-(4-(4-methylthiazol-5-yl)phenyl)ethyl)morpholine-3-carboxamide] had an IC50 in the test with MOLM-13 of 91.6 nM. In other words, the double-digit nanomolar range. `Cc1c(C#Cc2cnn(CCCN3CC(Nc4cccc5c4CN(C4CCC(=O)NC4=O)C5=O)C3)c2)sc2c1C(c1ccc(Cl)cc1)=N[C@@H](C)c1nnc(C)n1-2` (stereo partly drawn) [compound 177, 3-(4-((1-(3-(4-(((S)-4-(4-chlorophenyl)-3,6,9-trimethyl-6H-thieno[3,2-f][1,2,4]triazolo[4,3-a][1,4]diazepin-2-yl)ethynyl)-1H-pyrazol-1-yl)propyl)azetidin-3-yl)amino)-1-oxoisoindolin-2-yl)piperidine-2,6-dione]: the half-maximal inhibitory concentration (IC50) in the test on MOLM-13 was determined as 0.6 nM. This IC50 lies about 150-fold lower than the previous one.
